Drawing on a melting point compilation (Tetko et al.), this text covers melting point for 89 molecules.

A word on the melting point: it is the temperature of the solid-liquid transition.

SMILES strings stand for the structures.

The molecule `O=C(CCl)N1CC=C(c2c[nH]c3ccccc23)CC1` came in with a melting point of 172 to 174 °C.
To `COC(=O)c1cc(O)ccc1[N+](=O)[O-]` belongs 101 to 103 °C.
To `COc1ccc(S(N)(=O)=O)c(N)c1` belongs 139 to 141 °C; to `COc1ccnc(N2CCNCC2)c1`, 36 to 38 °C; to `O=S(=O)(Nc1ccccc1Br)N1CCCC1`, 69 to 71 °C.
The figure for `NC(C(=O)O)c1cccs1` (centres undefined) is 208 to 210 °C.
Regarding `Nc1ccc(C=CC(=O)O)cn1`, the melting point fell in the range of 189 to 191 °C.
To `OCc1nccn1CC(F)(F)F` belongs 89 to 91 °C; to `CCNc1ccc(C(=O)OCC)cc1[N+](=O)[O-]`, 91 to 95 °C.
The figure for `CC(C)(C)OC(=O)N1CCN(C(N)=O)C(C(=O)O)C1` (centres undefined) is 158 to 160 °C; for `NS(=O)(=O)c1c(Br)cc(F)cc1Br` it is 174 to 176 °C.
`O=C(O)c1ccc(N2CCCS2(=O)=O)cc1`: the melting point was 247 to 249 °C.
With `CNc1ncccn1`, the melting point was in the range of 60 to 62 °C.
To `CCCCCCC(NC)C(=O)O` (centres undefined) belongs 259 to 261 °C.
Regarding `O=C(O)C1CC(=O)N(c2ccc(F)cc2)C1` (centres undefined), the melting point was 121 to 123 °C.
To `COc1ccc(C(=O)c2ccco2)cc1` belongs 62 to 64 °C.
The figure for `Nc1cccnc1N1CCCC1` is 78 to 80 °C.
The figure for `N#Cc1ccc(OCCN)nc1` is 101 to 103 °C.
On to `OC1CCN(c2ccc(Cl)nn2)CC1`, for which the melting point lay in the range of 109 to 111 °C.
In turn, `O=Cc1cccc(Br)c1OC(F)F` registered a melting point of 49 to 51 °C.
To `CC(c1ccccc1)C(O)C(=O)O` (centres undefined) belongs 115 to 117 °C.
To `COc1ccc(S(=O)(=O)Nc2ccccc2C(=O)O)cc1` belongs 183 to 185 °C; to `Nc1ncncc1CO`, 165 to 167 °C; to `OCC(c1ccc(Br)cc1)N1CCNCC1` (centres undefined), 109 to 111 °C.
For the molecule `O=C(O)COc1ccc(Br)cc1F`, the melting point lay in the range of 106 to 108 °C.
`Fc1ccc2c(Cl)ccnc2c1` had a melting point of 71 to 73 °C.
The figure for `CCc1ccc(C(C)(C)C(=O)O)cc1` is 52 to 54 °C; for `Nc1nc(-c2cc3ccccc3o2)cs1` it is 243 to 245 °C; for `CS(=O)(=O)c1ccc(F)c(C(=O)O)c1` it is 190 to 192 °C.
To `CC(C)CC(Cc1cccc(Br)c1)C(=O)O` (centres undefined) belongs 66 to 68 °C.
To `O=C(O)CCCNC(=O)c1ccc2[nH]nnc2c1` belongs 230 to 232 °C; to `Cc1ccc(-c2nnn(CC(=O)O)n2)cc1`, 188 to 190 °C; to `CNC(=O)c1ccc(C#N)cc1`, 209 to 211 °C.
On to `CCOC(=O)c1cnn(CCC#N)c1N`, for which the melting point lay within 109 to 111 °C.
To `O=C(O)Cc1coc(-c2ccc(F)c(F)c2)n1` belongs 144 to 146 °C.
Regarding `Cc1ccc(S(=O)(=O)NCCCN(C)C)cc1C(=O)O`, the melting point lay in the range of 229 to 231 °C.
To `NNC(=O)COc1ccc(OCc2ccccc2)cc1` belongs 142 to 144 °C.
The figure for `O=S(=O)(Cc1ccccc1)N1CCNCC1` is 129 to 131 °C; for `N#CC1(c2cccc(Br)c2)CCOCC1` it is 90 to 92 °C.
`NNC(=O)c1cc2ccccc2o1` had a melting point of 171 to 173 °C.
To `O=C(O)C1(c2ccccc2Cl)CCOCC1` belongs 201 to 203 °C; to `COc1ccc(CC(=O)O)c(Cl)c1`, 118 to 120 °C; to `Sc1n[nH]c(-c2cccnc2)n1`, 304 to 306 °C.
To `c1ccc(NC2=NCCCS2)cc1` belongs 124 to 126 °C; to `CC(=NO)c1ccc(OCc2ccccc2C)cc1`, 153 to 155 °C.
The figure for `CCOc1ccc(C(=O)C(C)Cl)cc1` (centres undefined) is 62 to 64 °C; for `Cn1cccc1-c1csc(N)n1` it is 79 to 81 °C.
Regarding `CNC(C(=O)O)c1ccc(F)cc1` (centres undefined), the melting point was in the range of 276 to 278 °C.
The figure for `NC(=S)C1CCCO1` (centres undefined) is 80 to 82 °C; for `CN(C)c1ccc(C=O)cc1[N+](=O)[O-]` it is 104 to 106 °C; for `N#Cc1ccc(Cl)cc1NC1CCOCC1` it is 143 to 145 °C.
The figure for `NCC(=O)Nc1ccc(F)cc1` is 85 to 87 °C; for `NNS(=O)(=O)c1ccc(OC(F)(F)F)cc1` it is 105 to 107 °C; for `O=C(O)CCC(=O)N1CCc2sccc2C1` it is 130 to 132 °C.
The figure for `Clc1ccc(OCCBr)c(Br)c1` is 30 to 32 °C; for `O=S(=O)(Cl)c1ccc(-n2cnnn2)cc1` it is 179 to 181 °C; for `O=c1[nH]c(=O)c2ccccc2s1` it is 292 to 294 °C.
For `N#Cc1ccccc1OCc1cccc(C(=O)O)c1`, the melting point was in the range of 153 to 155 °C.
The figure for `O=C(c1ccccc1)c1ccc(CBr)cc1` is 109 to 112 °C.
The figure for `COc1ccc(I)cc1F` is 32 to 34 °C.
To `CC1CN(S(=O)(=O)c2ccc(N)cc2)CC(C)O1` (centres undefined) belongs 199 to 203 °C; to `CC1(CO)CCN(Cc2ccccc2)CC1`, 59 to 61 °C.
As to `O=C(O)c1cc(S(=O)(=O)Cl)c(Br)o1`, the melting point lay in the range of 139 to 141 °C.
The figure for `O=S1(=O)N=C(Cl)c2ccccc21` is 121 to 123 °C; for `O=C(O)c1cc(-c2cccs2)n(-c2ccccc2)n1` it is 193 to 195 °C; for `O=C1CCC2(CCN1)OCCO2` it is 101 to 103 °C.
To `CN(C)C(=O)c1ccc(N)cc1` belongs 151 to 153 °C; to `CC(=O)Nc1cccc(C#N)c1`, 133 to 135 °C.
The figure for `Cc1cc(C)c(-c2cc(N)[nH]n2)cc1C` is 145 to 147 °C; for `Nc1cccc(CN2CCSCC2)c1` it is 87 to 89 °C.
As to `O=C=Nc1ccc2c(c1)OCO2`, the melting point lay within 48 to 51 °C.
To `Cc1cccc2[nH]c(CO)cc12` belongs 71 to 73 °C.
To `COc1ccc(OCc2nc(C=O)cs2)cc1` belongs 95 to 97 °C; to `Nc1ccc(CN2CCN(Cc3ccccc3)CC2)cc1`, 96 to 98 °C.
The figure for `O=C(O)CC1NC(=O)N(c2ccc(F)cc2)C1=O` (centres undefined) is 224 to 226 °C; for `COc1cc(C=O)ccc1[N+](=O)[O-]` it is 89 to 91 °C; for `NC(Cc1ccc2c(c1)OCO2)C(=O)O` (centres undefined) it is 249 to 251 °C.
For the molecule `Cc1cc(C(F)(F)F)nc(O)n1`, the melting point fell in the range of 185 to 187 °C.
In turn, `CC1(C)CC(=O)c2cc(Br)cc(Cl)c2O1` gave a melting point of 48 to 50 °C.
To `Cc1nn(-c2ccccc2F)c(C)c1CC(=O)O` belongs 174 to 176 °C; to `NC(=S)c1cccc(C(=O)O)c1`, 240 to 242 °C; to `Cc1csc(=O)n1CC(=O)O`, 193 to 195 °C.
Take `O=C(O)c1ccc(N2CCCC2)c(F)c1`: the melting point lay in the range of 269 to 271 °C.
Molecule `OCc1ccnc(-n2ccnc2)c1` yielded a melting point of 155 to 157 °C.
In the case of `O=C(O)Cn1cccn1`, the melting point lay in the range of 139 to 141 °C.
The figure for `O=C(O)Cn1c(SC(F)F)nc2ccccc21` is 188 to 203 °C; for `O=C(O)c1ncc(Cl)cc1Cl` it is 139 to 141 °C.
`CCOC(=O)C(C#N)C(N)=O` (centres undefined) yielded a melting point of 152 to 154 °C.
The figure for `C=CC(=O)Nc1ccc(C(=O)O)cc1` is 246 to 248 °C.
